# From paper PMC3069143 (Analytical chemistry, 2011)
# Read-outs that look alike come from different tables or passages of the source.
# Tests used:
# rodent [1] = details: cited from earlier work; for LD50 (in words): rat for styrene and NPYR, mouse for arylamines
# Calf thymus ds-DNA [2] = test: ECL genotoxicity array, multi-enzyme; details: for ECL turnover rate R (in words): arylamines, HLE or MLE, AcCoA + NADPH
# rodent [3] = details: cited from earlier work
# human hepatic cell lines = details: ref Table S2 (SI); cited from earlier work
# [4] = test system: Salmonella typhimurium TA1535; details: ref Table S2 (SI); cited from earlier work
# [5] = test system: Salmonella typhimurium TA1538; details: ref Table S2 (SI); cited from earlier work
# Calf thymus ds-DNA [6] = test system: Calf thymus ds-DNA
# [7] = 1 min enzyme reaction, RLE or HLE
structure (smiles),measurement,setting,value
"Cc1ccc(N)cc1N [2,4-DAT, 2,4-diaminotoluene]",LD50 (in words),rodent [1],small
same,"R relative to 2,6-DAT","Calf thymus ds-DNA [2]; isomer pair 2,4-DAT vs 2,6-DAT",3 fold
"Cc1c(N)cccc1N [2,6-DAT, 2,6-diaminotoluene]",ECL turnover rate R (in words),Calf thymus ds-DNA [2],small but significant
same,induction of liver tumors,rodent [3]; rat models,fails to induce liver tumors
"CC(=O)Nc1ccc2c(c1)Cc1ccccc1-2 [2-AAF, N-acetyl-2-aminofluorene]",Comet assay OTM/conc.,human hepatic cell lines,large
"Nc1ccc2ccccc2c1 [2-NA, 2-naphthylamine]",ECL turnover rate R (in words),Calf thymus ds-DNA [2],did not generate large R
"Nc1ccc(-c2ccccc2)cc1 [4-ABP, 4-aminobiphenyl]",ECL turnover rate R (in words),Calf thymus ds-DNA [2],largest
"CN(CCCC(=O)c1cccnc1)N=O [NNK, 4-(methylnitrosamino)-1-(3-pyridyl)-1-butanone]","Ames mutagenicity, TA1535",[4],only slightly mutagenic
same,Comet assay OTM/conc.,human hepatic cell lines,small
same,"Ames mutagenicity, TA1538",[5],not mutagenic
same,ECL produced relative to styrene,"Calf thymus ds-DNA [6]; 0.2 mM substrate, either RLE or HLE, NADPH regenerating system",2–3 times
same,substrate concentration giving measurable ECL increase,Calf thymus ds-DNA [6]; [7],0.2 mM
"O=NN1CCCC1 [NPYR, N-nitrosopyrrolidine]","Ames mutagenicity, TA1535",[4],only slightly mutagenic
same,LD50 (in words),rodent [1],small
same,"Ames mutagenicity, TA1538",[5],not mutagenic
same,substrate concentration giving measurable ECL increase,Calf thymus ds-DNA [6]; [7],0.2 mM
C=Cc1ccccc1 [styrene],Comet assay OTM/conc.,human hepatic cell lines,small
same,LD50 (in words),rodent [1],small
same,ECL turnover rate R (in words),Calf thymus ds-DNA [6],small
same,substrate concentration giving measurable ECL increase,Calf thymus ds-DNA [6],1 mM
Cc1ccccc1 [toluene],LD50,"rodent [1]; rodent, single dose",2250 mg/kg body weight
same,TD50,"rodent [3]; liver TD50, rodent",5390 mg/kg body weight per day
